# In paper PMC6893898, “Receptor Interaction Profiles of 4-Alkoxy-Substituted 2,5-Dimethoxyphenethylamines and Related Amphetamines” (Frontiers in Pharmacology, 2019):
# What was measured:
# [1] = molecular target: T1, human 5-HT2B receptor (Homo sapiens, UniProt P41595); assay: Activity at the 5-HT2B receptor (FLIPR calcium, HEK 293 cells); assay type: cell-based; conditions: for Emax: HEK293, relative to 5-HT = 100%, read-out: h5-HT2B Activation efficacy max ± SD
# T1 construct: expressed in transfected cells; host or cells: HEK 293
# T1 sequence (P41595 whole entry): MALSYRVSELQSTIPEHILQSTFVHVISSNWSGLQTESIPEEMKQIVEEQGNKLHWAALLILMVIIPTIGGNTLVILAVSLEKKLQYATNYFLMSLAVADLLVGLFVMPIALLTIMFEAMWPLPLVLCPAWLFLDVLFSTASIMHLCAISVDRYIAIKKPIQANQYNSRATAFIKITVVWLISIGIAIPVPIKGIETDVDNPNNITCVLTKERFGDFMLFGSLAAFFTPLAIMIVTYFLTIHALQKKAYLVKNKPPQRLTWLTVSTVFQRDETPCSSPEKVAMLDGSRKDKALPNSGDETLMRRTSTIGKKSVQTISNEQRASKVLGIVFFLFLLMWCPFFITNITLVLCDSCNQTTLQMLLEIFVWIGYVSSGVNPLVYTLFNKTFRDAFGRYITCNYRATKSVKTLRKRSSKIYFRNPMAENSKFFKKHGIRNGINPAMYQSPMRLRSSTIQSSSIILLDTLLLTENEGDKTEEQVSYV
# Description: Activity at the 5-HT2B receptor was examined as previously described ([Luethi et al., 2018]). In summary, HEK 293 cells expressing the human 5-HT2B receptor were seeded at a density of 50,000 cells per well in 96-well poly-D-lysine-coated plates overnight at 37°C. The cells were then incubated in growth medium consisting of high glucose Dulbecco’s modified Eagle’s medium (DMEM) (Invitrogen, Zug, Switzerland), 10% fetal calf serum (non-dialyzed, heat-inactivated), 250 mg/l Geneticin and 10 ml/l PenStrep (Gibco), overnight at 37°C. After removal of the growth medium via snap inversion, calcium indicator Fluo-4-solution (100 µl) was injected into each well (Molecular Probes, Eugene, OR, USA) and incubated for 45 min at 31°C. Afterwards, the Fluo-4 solution was removed (snap inversion) and a further 100 µl of the Fluo-4 solution was added and incubated (45 min, 31°C). Thereafter, using the EMBLA cell washer, the cells were washed just before testing with HBSS and 20 mM HEPES and exposed to 100 µl of assay buffer. The well plate was positioned in the FLIPR and while online, 25 µl of the test compounds diluted in assay buffer were added. Concentration-response curves were calculated using nonlinear regression, and EC50 values were obtained. The maximal activity at the receptors was calculated relative to 5-HT activity which was defined as 100%.
# [2] = molecular target: T2, mouse TAAR1 (Mus musculus, UniProt Q923Y8); assay: Radioligand binding, mouse TAAR1 ([3H]RO5166017)
# T2 construct: expressed in transfected cells; host or cells: HEK 293 (membrane preparation)
# T2 sequence (Q923Y8 whole entry): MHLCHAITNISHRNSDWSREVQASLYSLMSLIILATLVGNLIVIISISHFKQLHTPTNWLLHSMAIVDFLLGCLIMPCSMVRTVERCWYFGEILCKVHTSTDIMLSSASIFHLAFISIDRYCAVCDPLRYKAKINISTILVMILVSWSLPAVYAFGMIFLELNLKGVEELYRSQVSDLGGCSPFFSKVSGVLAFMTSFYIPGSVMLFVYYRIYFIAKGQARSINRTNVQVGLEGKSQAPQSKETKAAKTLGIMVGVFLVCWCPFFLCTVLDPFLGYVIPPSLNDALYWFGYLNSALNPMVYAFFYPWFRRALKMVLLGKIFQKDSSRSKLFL
# [3] = molecular target: hSERT (Homo sapiens, UniProt P31645); assay: Radioligand binding, SERT ([3H]citalopram); design: expressed in transfected cells; host or cells: HEK 293 (membrane preparation)
# Chain of hSERT (P31645 whole entry): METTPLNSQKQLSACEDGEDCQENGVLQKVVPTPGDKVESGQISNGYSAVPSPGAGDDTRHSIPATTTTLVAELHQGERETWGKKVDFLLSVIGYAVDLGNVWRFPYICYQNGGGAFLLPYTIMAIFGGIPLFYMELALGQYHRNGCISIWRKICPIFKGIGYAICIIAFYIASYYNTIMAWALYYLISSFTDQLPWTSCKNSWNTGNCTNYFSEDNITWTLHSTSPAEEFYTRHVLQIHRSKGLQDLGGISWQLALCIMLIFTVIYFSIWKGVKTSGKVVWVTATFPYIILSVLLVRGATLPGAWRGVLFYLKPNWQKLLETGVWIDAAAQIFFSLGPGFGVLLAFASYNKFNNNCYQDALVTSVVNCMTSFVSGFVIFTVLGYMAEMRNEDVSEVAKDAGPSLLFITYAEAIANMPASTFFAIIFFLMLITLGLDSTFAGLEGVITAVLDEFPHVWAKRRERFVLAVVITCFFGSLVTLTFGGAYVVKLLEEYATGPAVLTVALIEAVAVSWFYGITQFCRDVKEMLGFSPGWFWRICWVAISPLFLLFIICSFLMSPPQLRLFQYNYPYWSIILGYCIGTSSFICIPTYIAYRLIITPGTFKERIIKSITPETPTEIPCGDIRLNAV
# [4] = molecular target: T3, human TAAR1 (Homo sapiens, UniProt Q96RJ0); assay: Activity at the human TAAR1 (cAMP, HEK 293 cells); assay type: cell-based; conditions: human TAAR1 EC50 ± SD
# T3 construct: expressed in transfected cells; host or cells: HEK 293 (recombinant, Geneticin/hygromycin B selection)
# T3 sequence (Q96RJ0 1-339): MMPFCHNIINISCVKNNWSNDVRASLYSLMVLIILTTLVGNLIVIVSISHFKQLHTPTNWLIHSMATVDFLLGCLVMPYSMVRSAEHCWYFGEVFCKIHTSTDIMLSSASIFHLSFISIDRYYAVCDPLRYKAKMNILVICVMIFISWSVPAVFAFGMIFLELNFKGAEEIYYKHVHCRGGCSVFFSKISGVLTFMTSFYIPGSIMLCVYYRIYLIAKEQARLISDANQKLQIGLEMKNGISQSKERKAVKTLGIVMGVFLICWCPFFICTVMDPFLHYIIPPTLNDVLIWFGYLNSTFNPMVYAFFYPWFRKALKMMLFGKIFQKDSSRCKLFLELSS
# Description: Activity at the human TAAR1 was examined as previously described in full detail ([Luethi et al., 2018]). In summary, human TAAR1 expressing recombinant HEK 293 cells were grown in 250 ml falcon culture flasks containing 30 ml of high glucose DMEM (10% heat inactivated fetal calf serum, 500 µg/ml Geneticin [Gibco, Zug, Switzerland] and 500 µg/ml hygromycin B) at 37°C and 5% CO2/95% air. At 80-90% confluency, the cells were collected. The medium was aspirated, cells were washed with phosphate-buffered saline (PBS) and then trypsinized for 5 min at 37°C with 5 ml of trypsin/EDTA solution. Next, 45 ml of medium was added and the mixture was transferred into a falcon tube. After centrifugation (900 rpm, 3 min, RT), the supernatant was aspirated and the remaining cell pellet was resuspended in fresh medium to […]. Using a multipipette, 100 µl of cells were transferred (80,000 cells/well) into a 96-well plate (BIOCOAT 6640, Becton Dickinson, Allschwil, Switzerland) and incubated for 20 h at 37°C. For the cAMP assay, the medium was aspirated replaced with 50 µL PBS without Ca^2+ and Mg^2+ ions. The PBS was then extracted using snap inversion and the plate was softly tapped against tissue; 90 µL of Krebs-Ringer Bicarbonate buffer (Sigma-Aldrich) containing 1 mM IBMX was added and incubated for 60 min at 37°C and 5% CO2/95% air. A concentration range between 300 pM and 30 µM of test compounds was examined in duplicate. A standard curve with a range of cAMP concentrations (0.13 nM to 10 µM) was created per 96-well plate. Each experiment was accompanied with a reference plate that included three compounds; RO5256390, β-phenylethylamine, and p-tyramine. The cells were exposed to either 30 µl of compound solution, 30 µl of β-phenylethylamine (as maximal response), or a basal control in PBS (containing 1 mM IBMX) for 40 min at 37°C. Next, under forceful shaking using black lids, the cells were exposed to 50 µl of 3x detection mix solution (composed of Ru-cAMP Alexa700 anti-cAMP antibody and lysis buffer) for 120 min at room temperature in order to lyse the cells. Using the NanoScan reader (Innovative Optische Messtechnik, Berlin, Germany; 456 nm excitation wavelength; 630 and 700 nm emission wavelengths), the fluorescence was examined and the fluorescence resonance energy transfer (FRET) signal was determined using the following equation; FRET (700 nm) − P × FRET (630 nm), where P = Ru (700 nm)/Ru (630 nm). Receptor binding affinity at the human TAAR1 was not determined since unfortunately, there are no suitable radioligands available for this receptor.
# Functional activity of the derivatives was only examined at the human TAAR1 and not at the mouse and rat TAAR1, because functional assays are not set up.
# [5] = molecular target: hNET (Homo sapiens, UniProt P23975); assay: Radioligand binding, NET (N-methyl-[3H]nisoxetine); design: expressed in transfected cells; host or cells: HEK 293 (membrane preparation)
# Chain of hNET (P23975 whole entry): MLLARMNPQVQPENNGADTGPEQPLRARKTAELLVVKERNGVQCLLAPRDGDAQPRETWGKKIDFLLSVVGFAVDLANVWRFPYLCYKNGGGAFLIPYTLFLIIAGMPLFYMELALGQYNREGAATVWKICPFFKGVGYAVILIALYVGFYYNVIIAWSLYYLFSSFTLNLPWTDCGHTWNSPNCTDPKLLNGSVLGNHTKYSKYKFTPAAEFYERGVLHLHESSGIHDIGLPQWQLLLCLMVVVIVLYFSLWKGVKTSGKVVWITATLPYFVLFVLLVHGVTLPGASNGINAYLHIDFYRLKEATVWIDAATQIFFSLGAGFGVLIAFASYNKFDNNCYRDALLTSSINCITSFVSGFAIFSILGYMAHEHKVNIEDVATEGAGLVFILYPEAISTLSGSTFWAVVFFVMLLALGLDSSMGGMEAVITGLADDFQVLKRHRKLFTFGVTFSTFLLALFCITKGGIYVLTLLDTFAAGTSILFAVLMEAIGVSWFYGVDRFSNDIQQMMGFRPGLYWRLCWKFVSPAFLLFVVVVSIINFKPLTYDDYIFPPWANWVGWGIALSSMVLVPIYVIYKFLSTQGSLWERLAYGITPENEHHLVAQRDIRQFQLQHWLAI
SMILES,EC50 [1],Emax [1],Ki [2],Ki [3],EC50 [4],Ki [5],Increase in 5-HT2B activation potency compared to 2C-O-21 (9) [1],Higher 5-HT2B activation potency compared to TMA-2 (19) [1]
"CCOc1cc(OC)c(CCN)cc1OC [2C-O-2, 2,5-dimethoxy-4-ethoxyphenethylamine]",0.049 ± 0.044 µM,85 to 101%,4 ± 1.1 µM,> 8.6 µM,9.6 ± 6.34 µM,> 9.7 µM,,
"C=C(C)COc1cc(OC)c(CCN)cc1OC [2C-O-3, 2,5-dimethoxy-4-methallyloxyphenethylamine]",0.068 ± 0.021 µM,50 ± 22%,1.1 ± 0.4 µM,> 8.6 µM,> 30 µM,> 9.7 µM,,
"C=CCOc1cc(OC)c(CCN)cc1OC [2C-O-16, 4-allyloxy-2,5-dimethoxyphenethylamine]",0.12 ± 0.07 µM,42 ± 13%,2.5 ± 1 µM,> 8.6 µM,> 30 µM,> 9.7 µM,,
"COc1cc(OCCF)c(OC)cc1CCN [2C-O-21, 2,5-dimethoxy-4-(2-fluoroethoxy)phenethylamine]",0.9 ± 0.45 µM,39 ± 26%,> 4.9 µM,> 8.6 µM,> 30 µM,> 9.7 µM,,
"COc1cc(OCC(F)F)c(OC)cc1CCN [2C-O-21.5, 4-(2,2-difluoroethoxy)-2,5-dimethoxyphenethylamine]",0.48 ± 0.26 µM,28 ± 23%,> 4.8 µM,> 8.6 µM,> 30 µM,> 9.7 µM,2 fold,
"COc1cc(OCC(F)(F)F)c(OC)cc1CCN [2C-O-22, 2,5-dimethoxy-4-(2,2,2-trifluoroethoxy)phenethylamine]",0.25 ± 0.01 µM,28 ± 20%,2.5 ± 0.4 µM,> 8.6 µM,3.6 ± 2.4 µM,> 9.7 µM,4 fold,
"COc1cc(OCc2ccccc2)c(OC)cc1CCN [2C-O-27, 4-benzyloxy-2,5-dimethoxyphenethylamine]",0.48 ± 0.19 µM,39 ± 16%,0.65 ± 0.19 µM,> 8.6 µM,> 30 µM,> 9.7 µM,,
"C=CCOc1cc(OC)c(CC(C)N)cc1OC (centres unmarked) [MALM, 4-allyloxy-2,5-dimethoxyamphetamine]",0.0095 ± 0.0033 µM,85 to 101%,2 ± 0.4 µM,> 8.6 µM,> 30 µM,> 9.7 µM,,28 fold
"COc1cc(OCC(F)F)c(OC)cc1CC(C)N (centres unmarked) [MDFEM, 4-(2,2-difluoroethoxy)-2,5-dimethoxyamphetamine]",0.13 ± 0.08 µM,21 ± 8%,> 4.8 µM,> 8.6 µM,> 30 µM,> 9.7 µM,,
"COc1cc(OCCF)c(OC)cc1CC(C)N (centres unmarked) [MFEM, 2,5-dimethoxy-4-(2-fluoroethoxy)amphetamine]",0.27 ± 0.21 µM,41 ± 22%,> 4.9 µM,> 8.6 µM,> 30 µM,> 9.7 µM,,
"COc1cc(OC(C)C)c(OC)cc1CC(C)N (centres unmarked) [MIPM, 2,5-dimethoxy-4-isopropoxyamphetamine]",0.18 ± 0.12 µM,20 ± 14%,> 4.8 µM,> 8.6 µM,> 30 µM,> 9.7 µM,,2 fold
"C=C(C)COc1cc(OC)c(CC(C)N)cc1OC (centres unmarked) [MMALM, 2,5-dimethoxy-4-methallyloxyamphetamine]",0.029 ± 0.013 µM,85 to 101%,1.7 ± 0.9 µM,> 8.6 µM,> 30 µM,> 9.7 µM,,9 fold
"COc1cc(OCC(F)(F)F)c(OC)cc1CC(C)N (centres unmarked) [MTFEM, 2,5-dimethoxy-4-(2,2,2-trifluoroethoxy)amphetamine]",0.2 ± 0.03 µM,5%,4.5 ± 0.5 µM,> 8.6 µM,> 30 µM,> 9.7 µM,,
